Source: patent US20200270309A1, “MALEIMIDE GROUP-MODIFIED ANGIOGENESIS INHIBITOR HM-1 AND USE THEREOF” (NANJING ANJI BIOLOGICAL TECHNOLOGY CO., LTD, priority 2017, published 2020)
Peptide text beside a SMILES is read from it. * marks the point of attachment. X74 = O=C1C=CC(=O)N1c1cccc(CCCCCCCCCCC(=O)*)c1; X59 = O=C1C=CC(=O)N1c1cccc(CCCCCCCCC(=O)*)c1; X66 = O=C1C=CC(=O)N1c1cccc(CCCCCCCC(=O)*)c1; X54 = O=C1C=CC(=O)N1c1cccc(CCCCCCC(=O)*)c1

Legend:
[1] = system: IL-1β production by mouse peritoneal macrophages; assay: IL-1β production by mouse peritoneal macrophages (ELISA); assay type: cell-based; settings: for Inhibition rate: IL-1β production, vs model group; for IL-1β: mouse peritoneal macrophages, 48 h, ELISA
How it was run: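 Starch-elicited (6%, i.p.) mouse peritoneal macrophages, 2×10^6 cells/mL in RPMI 1640, adhered 3 h; non-adherent cells washed off. Polypeptides added at low, medium and high concentrations, Dex as positive control; cultured 48 h, supernatant IL-1β measured.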

[2] = system: carrageenan-induced toe swelling; assay: Carrageenan-induced toe swelling in rats; assay type: in vivo; settings: SD rats; for Swelling degree 1 h: 1 h after carrageenan; for Swelling degree 3 h: 3 h after carrageenan; for Swelling degree 5 h: 5 h after carrageenan; for Swelling degree 7 h: 7 h after carrageenan
How it was run: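 Rats dosed by injection once daily for 3 d, controls given equal-volume saline. Right hind paw volume measured by water displacement to a marked joint line; swelling degree (mL) is paw volume after carrageenan inflammation minus volume before.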

[3] = system: retinal vascular endothelial nuclei; assay: Neovascularization in a rat model of premature retinopathy; assay type: in vivo, rats; settings: dose 0.05 μM in the vitreous chamber from day 7 of modeling for one week; counted on day 14; oxygen-induced neonatal rats
How it was run: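 Newborn rats kept 7 d in chamber alternating 80% and 10% O2 every 24 h (23 °C), then room air. Intravitreal injection of test agents on day 7, saline for model and control; eyes taken day 14, HE-stained 4 μm sections. Endothelial nuclei breaching retinal inner limiting membrane counted, averaged per section per eye (10 sections).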

adjuvant arthritis = assay: Rat adjuvant arthritis (AA) animal model; assay type: in vivo, SD rats; settings: 4.0 mg/kg; for Clinical score: intravenous in the tail once every five days from day 10, four paws scored 0-4, max 16, mean±SD; for Joint swelling degree / Left and right paw swelling degree: intravenous in the tail once every five days from day 10, mean±SD
splenic lymphocytes = assay: Proliferation of splenic lymphocytes in mice (ConA, MTT); assay type: cell-based; settings: ConA-stimulated mouse splenic lymphocytes, 48 h
How it was run: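 Mouse splenocytes (5×10^6 cells/mL, RPMI 1640 with 10% calf serum, red cells lysed) stimulated with ConA plus varying polypeptide concentrations, with blank, ConA-only and Dex groups, 48 h at 37° C. MTT added for 4 h, formazan dissolved in DMSO, OD read at 570 nm; five replicates.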

Structure (SMILES)	Inhibition rate ([1]; dose 0.05 μM) [%]	IL-1β ([1]; dose 0.05 μM) [pg/mL]	Inhibition rate ([1]; dose 0.1 μM) [%]	IL-1β ([1]; dose 0.1 μM) [pg/mL]	Inhibition rate ([1]; dose 0.2 μM) [%]	IL-1β ([1]; dose 0.2 μM) [pg/mL]	Swelling degree 1 h ([2]; 2.0 mg/kg once a day for 3 d) [mg]	Swelling degree 3 h ([2]; 2.0 mg/kg once a day for 3 d) [mg]	Swelling degree 5 h ([2]; 2.0 mg/kg once a day for 3 d) [mg]	Swelling degree 7 h ([2]; 2.0 mg/kg once a day for 3 d) [mg]	Swelling degree 1 h ([2]; 4.0 mg/kg once a day for 3 d) [mg]	Swelling degree 3 h ([2]; 4.0 mg/kg once a day for 3 d) [mg]	Swelling degree 5 h ([2]; 4.0 mg/kg once a day for 3 d) [mg]	Swelling degree 7 h ([2]; 4.0 mg/kg once a day for 3 d) [mg]	Nuclei count (retinal vascular endothelial nuclei, average per section per eyeball) [3]	Clinical score (adjuvant arthritis)	Joint swelling degree (adjuvant arthritis) [mm]	Left and right paw swelling degree (adjuvant arthritis) [mm]	A570 nm/A630 nm (splenic lymphocytes; polypeptide dose 0.05 μM)	Inhibition rate (%) (splenic lymphocytes; polypeptide dose 0.05 μM)	further results
C[C@H](NC(=O)CNC(=O)[C@H](CCCNC(=N)N)NC(=O)CCCCCCc1cccc(N2C(=O)C=CC2=O)c1)C(=O)N[C@@H](CC(=O)O)C(=O)N[C@@H](CCCNC(=N)N)C(=O)N[C@@H](C)C(=O)NCC(=O)NCC(=O)NCC(=O)NCC(=O)N[C@@H](CCCNC(=N)N)C(=O)NCC(=O)N[C@@H](CC(=O)O)C(=O)O [X30] (X54-RGADRAGGGGRGD-OH)	28.30	674.82 ± 10.45	33.96	621.53 ± 19.69	37.33	589.79 ± 19.66	0.26 ± 0.15	0.36 ± 0.18	0.40 ± 0.16	0.35 ± 0.11	0.25 ± 0.19	0.33 ± 0.13	0.39 ± 0.18	0.34 ± 0.15	8.256 ± 3.403	5.73 ± 1.05	0.82 ± 0.12	3.76 ± 0.64	0.5725 ± 0.0671	15.24	A570 nm/A630 nm (splenic lymphocytes; polypeptide dose 0.1 μM): 0.4914 ± 0.0652; Inhibition rate (%) (splenic lymphocytes; polypeptide dose 0.1 μM): 27.24%; A570 nm/A630 nm (splenic lymphocytes; polypeptide dose 0.2 μM): 0.4759 ± 0.0702; Inhibition rate (%) (splenic lymphocytes; polypeptide dose 0.2 μM): 29.54%
C[C@H](NC(=O)CNC(=O)[C@H](CCCNC(=N)N)NC(=O)CCCCCCCc1cccc(N2C(=O)C=CC2=O)c1)C(=O)N[C@@H](CC(=O)O)C(=O)N[C@@H](CCCNC(=N)N)C(=O)N[C@@H](C)C(=O)NCC(=O)NCC(=O)NCC(=O)NCC(=O)N[C@@H](CCCNC(=N)N)C(=O)NCC(=O)N[C@@H](CC(=O)O)C(=O)O [X31] (X66-RGADRAGGGGRGD-OH)	15.28	797.34 ± 10.46	18.74	764.81 ± 19.08	23.12	723.57 ± 18.58	0.23 ± 0.18	0.37 ± 0.12	0.38 ± 0.16	0.33 ± 0.11	0.22 ± 0.12	0.36 ± 0.16	0.38 ± 0.15	0.35 ± 0.14	7.228 ± 3.184	5.74 ± 1.12	0.84 ± 0.12	3.72 ± 0.98	0.6142 ± 0.0512	9.06	A570 nm/A630 nm (splenic lymphocytes; polypeptide dose 0.1 μM): 0.6134 ± 0.1148; Inhibition rate (%) (splenic lymphocytes; polypeptide dose 0.1 μM): 9.18%; A570 nm/A630 nm (splenic lymphocytes; polypeptide dose 0.2 μM): 0.5450 ± 0.0838; Inhibition rate (%) (splenic lymphocytes; polypeptide dose 0.2 μM): 19.31%
C[C@H](NC(=O)CNC(=O)[C@H](CCCNC(=N)N)NC(=O)CCCCCCCCc1cccc(N2C(=O)C=CC2=O)c1)C(=O)N[C@@H](CC(=O)O)C(=O)N[C@@H](CCCNC(=N)N)C(=O)N[C@@H](C)C(=O)NCC(=O)NCC(=O)NCC(=O)NCC(=O)N[C@@H](CCCNC(=N)N)C(=O)NCC(=O)N[C@@H](CC(=O)O)C(=O)O [X32] (X59-RGADRAGGGGRGD-OH)	18.02	771.56 ± 13.41	28.17	676.06 ± 19.82	43.31	533.56 ± 18.54	0.25 ± 0.18	0.35 ± 0.13	0.36 ± 0.12	0.31 ± 0.17	0.24 ± 0.14	0.33 ± 0.17	0.41 ± 0.15	0.35 ± 0.12	8.394 ± 2.665	5.81 ± 1.14	0.81 ± 0.18	3.91 ± 0.64	0.6117 ± 0.0672	9.43	A570 nm/A630 nm (splenic lymphocytes; polypeptide dose 0.1 μM): 0.5954 ± 0.0678; Inhibition rate (%) (splenic lymphocytes; polypeptide dose 0.1 μM): 11.84%; A570 nm/A630 nm (splenic lymphocytes; polypeptide dose 0.2 μM): 0.5428 ± 0.0408; Inhibition rate (%) (splenic lymphocytes; polypeptide dose 0.2 μM): 19.63%
C[C@H](NC(=O)CNC(=O)[C@H](CCCNC(=N)N)NC(=O)CCCCCCCCCCc1cccc(N2C(=O)C=CC2=O)c1)C(=O)N[C@@H](CC(=O)O)C(=O)N[C@@H](CCCNC(=N)N)C(=O)N[C@@H](C)C(=O)NCC(=O)NCC(=O)NCC(=O)NCC(=O)N[C@@H](CCCNC(=N)N)C(=O)NCC(=O)N[C@@H](CC(=O)O)C(=O)O [X34] (X74-RGADRAGGGGRGD-OH)	18.47	767.28 ± 18.52	19.97	753.21 ± 13.97	28.14	676.31 ± 16.02	0.26 ± 0.18	0.38 ± 0.13	0.39 ± 0.11	0.35 ± 0.14	0.22 ± 0.18	0.38 ± 0.15	0.36 ± 0.16	0.34 ± 0.13	7.292 ± 3.827	5.66 ± 1.09	0.83 ± 0.17	3.84 ± 0.88	0.5469 ± 0.0655	19.03	A570 nm/A630 nm (splenic lymphocytes; polypeptide dose 0.1 μM): 0.4573 ± 0.1104; Inhibition rate (%) (splenic lymphocytes; polypeptide dose 0.1 μM): 32.29%; A570 nm/A630 nm (splenic lymphocytes; polypeptide dose 0.2 μM): 0.4431 ± 0.1192; Inhibition rate (%) (splenic lymphocytes; polypeptide dose 0.2 μM): 34.39%
